Data as given in patent US20130157285A1, “IDENTIFICATION OF INVASIVE AND SLOW-GROWING TUMORIGENIC CELL SUBSETS IN TUMORS” (The Regents of the University of California, priority 2011, published 2013).

Columns and labels:
[1] = test system: MDA-MB-231 tumor cells; experiment: Extravasation efficiency in chick chorioallantoic membrane (CAM); type: in vivo, chicken embryos; details: 24 hrs after injection into CAM vein; cells pre-treated with HA for 1 hour on ice
Procedure: Fertilized chicken eggs were incubated in a rotary incubator at 37° C. with 90% humidity for 4 days before being removed from the shell and placed in covered dishes and incubated at 37° C. with 90% humidity until usage (PMID:20671724). On day 13 of embryonic development, 7.5×10^4 tumor cells in 100 μL PBS were intravenously injected into a vein within the chorioallantoic membrane (CAM, N=5 each group) (PMID-20671724). Prior to injection, cancer cells were pre-treated with HA (100 mg/ml) or vehicle (PBS) for 1 hour on ice. […] At least 200 cells for each ROI at T=0 was analyzed and enumerated.
Extravasated tumor cells can be observed in interstitial spaces 24-72 hrs after their injection into CAM veins but by this time cell bound F-HA is not detectable since it has been metabolized (FIG. 22B). To determine if F-HA promotes extravasation of dt-Tomato expressing tumor cells, we therefore simply measured the number of extravasated tumor cells at varying times after injection with or without unlabeled HA, used at the same concentration and polydispersity as F-HA, with intravial confocal imaging (FIG. 22C-D). […] We next determined if exposing tumor cells to HA increased extravasation, choosing 24 hrs after injection rather than 72 hrs shown in FIG. 22C to reduce the contribution of proliferation to appearance of extravascular tumor colonies. […]

[2] = Targeting of HA-based probes in response-to-injury model; type: in vivo, rat; details: radiolabel, magnetic resonance and fluorescence labels
Source text: (§1) We evaluated the targeting ability of HA-based probes in several modalities (radiolabel, magnetic resonance, and fluorescence) to areas of microenvironment remodeling that are associated with both tissue injury and tumor formation. We chose well-characterized rat balloon injured carotid arteries as a response to injury model, and xenografts of MDA-MB-231 cells as a tumor model.

[3] = data obtained from Hyal Corporation, cited from earlier work
[4] = test system: T4-2; experiment: Fluorescent HA probe binding by flow cytometry (FACS); type: cell-based, human
Source text: (§2) Simultaneous profiling of cell surface markers and HA binding/uptake required the establishment of a sensitive multiplexed detection method, which could detect both the cell surface receptors and the binding/uptake of ligand (HA). We utilized fluorescence-activated cell sorting (FACS) and established protocols for minimum decoration of cells by antibodies and HA, maximum detection sensitivity at the cell surface, and retained viability/functionality during and after sort. Fluorescent HA probes and antibodies were synthesized and characterized in a panel of human breast cancer cell lines (MDA-MB-231, SUM1315MO2, HS-578T, MDA-MB-468, HCC-1569, BT-20, MCF-10A, S1, T4-2, MCF-7, BT474, SK-BR3, AU565, MDA-MB-361, D920, SK3 [RHAMM−/− and CD44−/− were used as negative controls], and 10T½ [RHAMM+/+ were used as positive controls]). In brief, soluble HA (280,000 dalton) was linked to hydrazide-activated fluorochromes and monoclonal antibodies were directly conjugated to tetrafluorophenyl (TFP) ester activated fluorochromes (Alexa Fluor 647 and sometimes to Alexa Fluor 488) and reacted with the live cells under sterile dark conditions. Four fluorochromes were selected in a manner that provided minimal fluorescent spectral overlaps and maximal brightness for low-expressing markers, which allowed sensitive monitoring of subtle changes in marker expression and HA binding capacity in live cells. Near infrared fluorescence range was selected for HA to extend signal stability during multiple stages of characterizations (Alexa Fluor 647). […] As well, these appeared to non-specifically interact with each other and with cells, which would require extensive characterization and optimization. Therefore, we continued our study using minimally-decorated HA and antibodies by fluorochromes, as described below, and successfully profiled multiple cell surface markers.
(§3) (1) Grow cells to 50% confluence on culture flask; (2) Rinse in Ca^2+-free Hank's Buffered Saline Solution (HBSS/20 mM HEPES, pH 7.3); (3) Harvest cells with non-enzymatic HBSS-based cell dissociation solution; (4) Resuspend in cold and sterile PBS solution that contains Antibiotic, HEPES pH 7.4, Insulin, and Transferrin (PBS/additive solution); (5) Centrifuge and eliminate supernatant; (6) Wash in cold PBS/additive solution; (7) Count cells using cell counter instrument and measure viability; (8) Treat cells (in suspension) with Alexa Flour 647-HA; (9) Incubate for 45 min on ice, in dark.
(§4) For single-color HA-binding flow cytometry: (a) wash the cells, eliminate supernatant and adjust concentration of solution appropriate for flow cytometry and (b) perform live cell flow cytometry immediately.
(§5) Cells were grown to 50%-70% confluence in 75 cm^2 culture flasks in DMEM supplemented with 10% FCS at 37° C. and 5% CO2, then subcultured every 3-4 days. For HA uptake experiments, cells were grown to 50% subconfluence, which was achieved 12-20 hrs after subculture, in order to maximize RHAMM surface display. Cells were rinsed in Ca++-free Hanks Buffered Saline (HBSS) solution/20 mM HEPES, pH 7.3, and removed from the substratum by incubating in non-enzymatic HBSS-based solution (Sigma-Aldrich[H-6648]) for 2-3 min, which preserves cell surface epitopes (Veiseh M, et al, Biomacromolecules 2012, Hamilton S. R. et al, JBC, 2007). Viablity of cells was assessed using a Vi_CELL cell analyzer.
(§6) 0.2 ml of soluble HA (1% HA, MWav=280,000 dalton) was activated in 1 ml of a (0.0028 g/1 ml MES) N-(3-Dimethylaminopropyl)-N′-ethylcarbodiimide hydrochloride (EDAC) solution (Sigma-Aldrich) in 4-morpholineethanesulfonic acid (MES) (20 mM, pH 4.5, Sigma-Aldrich), and the resulting solution was reacted with 0.3 ml of A^647-HA hydrazide, tris(triethylammonium) salt (Invitrogen, 1 mg/ml in H2O) in the dark at RT. The solution was covered in aluminum foil and placed on a rocker for 12 hrs at room temperature. […]

[5] = test system: SKBR-3; experiment: as above; type: cell-based, human
Source text: as §2, §3, §4, §5, §6

[6] = test system: MCF-7; experiment: as above; type: cell-based, human; details: Table 1, HA probe binding/uptake
Source text: as §2, §3, §4, §5, §6

[7] = test system: MDA-MB-231; experiment: as above; type: cell-based, human
Source text: as §2, §3, §4, §5, §6

[8] = test system: S1; experiment: as above; type: cell-based, human; details: Table 1; SI (S1); HA probe binding/uptake
Source text: as §2, §3, §4, §5, §6

[9] = test system: MCF-10A; experiment: as above; type: cell-based, human; details: Table 1, HA probe binding/uptake
Source text: as §2, §3, §4, §5, §6

[10] = test system: MDA-MB-231; experiment: Inhibition of HA probe uptake, confocal imaging; type: cell-based, human; details: excess HA added either during or prior to addition of HA probe
[11] = test system: xenografts of MDA-MB-231 cells; experiment: Targeting of HA-based probes in tumor model; type: in vivo; details: radiolabel, magnetic resonance and fluorescence labels
Source text: as §1

[12] = Table 1, HA probe binding/uptake

In the case of hyaluronan [HA], the “extravasation efficiency of tumor cells exposed to HA vs untreated cells” value [1] is given as “twice”, the “targeting of HA-based probes to injured tissue” value [2] is given as “selective targeting” and the “tolerability of HA injected I.V.” value ([3]; I.V. 1-12 mg/kg) is given as “well tolerated”. For the same substance, the “T½ from HA serum levels” value ([3]; I.V., 1.5 mg/kg dose) was 12 h, the HA binding [4, 12] was “High” and the HA binding level ([4]; Table 6) was “HA^2+”. The HA binding [5, 12] was “Low”, the HA binding level ([5]; Table 6) was “HA^+” and the HA binding [6] was “Low”. For the same substance, the HA binding [7, 12] was “Very high”, the HA binding level ([7]; Table 6) was “HA^4+” and the HA binding [8] was “Medium”. For the same substance, the HA binding [9] was “Medium”, the “effect on signal of HA probe uptake” value [10] was “reduced” and the “targeting of HA-based probes to tumor tissue” value [11] was “selective targeting”.
